Measured values taken from ChEMBL document CHEMBL1155920, “Effects of the aryl linker and the aromatic substituent on the anti-HCV activities of aryl diketoacid (ADK) analogues” (Bioorg Med Chem Lett, 2008).
pEC50, pIC50: −log10 of the molar value.

Legend:
[1] = system: Hepatitis C virus; assay: Antiviral activity against HCV subgenomic replicon harboring NS5B gene transfected in human Huh7 cells; type: functional, Hepacivirus hominis; conditions: Huh-7
[2] = Inhibition of HCV RNA-dependent RNA polymerase; parameters: species or system Hepacivirus hominis
[3] = system: Hepatitis C virus; assay: Inhibition of recombinant HCV 1b NS5B deltac21 RNA polymerase by scintillator counting; parameters: species or system Hepatitis C virus subtype 1b
[4] = Cytotoxicity against human Huh7 cells; type: cell-based, Huh-7

| SMILES | pEC50 [1] | pIC50 [2] | pIC50 [3] | CC50 [4] |
| --- | --- | --- | --- | --- |
| O=C(O)/C(O)=C/C(=O)c1cccc(NCc2ccccc2)c1 | 4.55 | 4.77 | 4.55 | > 100 µM |
| O=C(O)/C(O)=C/C(=O)c1ccc(OCc2ccccc2)cc1 | 6.18 | – | 5.08 | > 100 µM |
| O=C(O)/C(O)=C/C(=O)c1ccc(OCc2ccc(Cl)cc2)cc1 | 5.51 | – | 5.82 | > 100 µM |
| O=C(O)/C(O)=C/C(=O)c1cccc(OCc2ccccc2)c1 | 4.52 | 5.10 | 5.34 | > 100 µM |
| O=C(O)/C(O)=C/C(=O)c1cccc(OCc2ccc(Cl)cc2)c1 | < 4.30 | – | 4.55 | > 100 µM |
| O=C(O)/C(O)=C/C(=O)c1ccccc1OCc1ccc(Cl)cc1 | 6.27 | – | 5.70 | > 100 µM |
| O=C(O)/C(O)=C/C(=O)c1ccccc1OCc1ccccc1 | 4.40 | – | 4.52 | > 100 µM |
| O=C(O)/C(O)=C/C(=O)c1cccc(NCc2ccc(Cl)cc2)c1 | 6.09 | – | 6.02 | > 100 µM |
